We go through two compounds from patent publication US6203813A, “Pharmaceutical delivery device and method of preparation therefor” (priority 1998, dated 2001).

Structures are written as SMILES. Entries after “also recorded” stand apart in the source; their conditions may differ.

Data set [1] is described as follows: Patients' blood levels of naltrexone and 6-beta-naltrexone after subcutaneous pellet implant. Format: in vivo, human.
In the next data set the test system is opiate addicts. The data set can be described thus: Relapse studies after opiate reversal under general anesthesia (telephone follow-up). Type of data set: in vivo, human.
The conditions of data set [2]: cited from earlier work.
Another data set deals with male rats. The settings on record: pentobarbital injection; naltrexone by injection vs pellet; cited from earlier work.
Data set [3] concerns rats. The settings on record: chronic naltrexone exposure; cited from earlier work.
For data set [4], the system named is rats. The settings on record: 50 mg pellets containing 10 mg naloxone or naltrexone as base; cited from earlier work.
In another data set the test system is patients. The settings on record: cited from earlier work.

As to `O=C1CC[C@@]2(O)[C@H]3Cc4ccc(O)c5c4[C@@]2(CCN3CC2CC2)[C@H]1O5` [naltrexone, N-cyclopropylmethylnoroxy morphone], the “duration of therapeutically effective naltrexone level in bloodstream” value in data set [1] (1000 mg dose, inventive implant, ~2-8 ng/ml) is reported as “approximately eighty”. In addition, the Ntx level in data set [1] (78 days since implant, patients' blood, pellet of Examples 1-4, listed as Ntx, 112320 min) is 6 ng/mL. For the same compound, the concentration at 1920 h in data set [1] (human, blood, sc, 1000 mg, inventive implant, leveling off, for approximately eighty days, read-out: level of naltrexone in patient's bloodstream) was 2 to 8 ng/mL. Moreover, in data set [1] (human, blood, sc, 8 days since implant, patients' blood, pellet of Examples 1-4, read-out: Ntx level), the concentration at 192 h was 7 ng/mL. For the same compound, the concentration at 336 h in data set [1] (human, blood, sc, 14 days since implant, patients' blood, pellet of Examples 1-4, read-out: Ntx level) is 11 ng/mL. For the same compound, the concentration at 528 h in data set [1] (human, blood, sc, 22 days since implant, patients' blood, pellet of Examples 1-4, read-out: Ntx level) stood at 7 ng/mL. In addition, the concentration at 672 h in data set [1] (human, blood, sc, 28 days since implant, patients' blood, pellet of Examples 1-4, read-out: Ntx level) was found to be 2 ng/mL. For the same compound, the concentration at 696 h in data set [1] (human, blood, sc, 29 days since implant, patients' blood, pellet of Examples 1-4, read-out: Ntx level) is 2 ng/mL. Also, in data set [1] (human, blood, sc, 32 days since implant, patients' blood, pellet of Examples 1-4, read-out: Ntx level), the concentration at 768 h was found to be 7 ng/mL. Further, in data set [1] (human, blood, sc, 33 days since implant, patients' blood, pellet of Examples 1-4, read-out: Ntx level), the concentration at 792 h was under 2 ng/mL. Moreover, in data set [1] (human, blood, sc, 34 days since implant, patients' blood, pellet of Examples 1-4, read-out: Ntx level), the concentration at 816 h was 4 ng/mL. Further, the concentration at 840 h in data set [1] (human, blood, sc, 35 days since implant, patients' blood, pellet of Examples 1-4, read-out: Ntx level) stood at 4 ng/mL. The concentration at 888 h in data set [1] (human, blood, sc, 37 days since implant, patients' blood, pellet of Examples 1-4, read-out: Ntx level) was under 3 ng/mL. For the same compound, the concentration at 912 h in data set [1] (human, blood, sc, 38 days since implant, patients' blood, pellet of Examples 1-4, read-out: Ntx level) is under 2 ng/mL. Also, the concentration at 936 h in data set [1] (human, blood, sc, 39 days since implant, patients' blood, pellet of Examples 1-4, read-out: Ntx level) came to 5 ng/mL. Besides, the concentration at 1008 h in data set [1] (human, blood, sc, 42 days since implant, patients' blood, pellet of Examples 1-4, read-out: Ntx level) was 4 ng/mL. Also, the concentration at 1176 h in data set [1] (human, blood, sc, 49 days since implant, patients' blood, pellet of Examples 1-4, read-out: Ntx level) amounted to 4 ng/mL. Moreover, in data set [1] (human, blood, sc, 51 days since implant, patients' blood, pellet of Examples 1-4, read-out: Ntx level), the concentration at 1224 h came out at 8 ng/mL. Also, in data set [1] (human, blood, sc, 55 days since implant, patients' blood, pellet of Examples 1-4, read-out: Ntx level), the concentration at 1320 h was 36 ng/mL. For the same compound, the concentration at 1440 h in data set [1] (human, blood, sc, 60 days since implant, patients' blood, pellet of Examples 1-4, read-out: Ntx level) came out at 10 ng/mL. For the same compound, the concentration at 1488 h in data set [1] (human, blood, sc, 62 days since implant, patients' blood, pellet of Examples 1-4, read-out: Ntx level) was under 4 ng/mL. For the same compound, in data set [1] (human, blood, sc, 65 days since implant, patients' blood, pellet of Examples 1-4, read-out: Ntx level), the concentration at 1560 h is under 2 ng/mL. The concentration at 1680 h in data set [1] (human, blood, sc, 70 days since implant, patients' blood, pellet of Examples 1-4, read-out: Ntx level) was 3 ng/mL. For the same compound, the concentration at 1848 h in data set [1] (human, blood, sc, 77 days since implant, patients' blood, pellet of Examples 1-4, read-out: Ntx level) stood at 2 ng/mL. Moreover, in data set [1] (human, blood, sc, 78 days since implant, patients' blood, pellet of Examples 1-4, read-out: Ntx level), the concentration at 1872 h stood at 4 ng/mL. Also, the “patients using opiates, assuming all not contacted were using” value in the data set on opiate addicts (one month after opiate reversal, DNM versus ONM, x2=0.76 (not significant)) is 54%. Moreover, the “patients using opiates, excluding those who could not be contacted” value with opiate addicts (one month follow-up after ORGA, DNM 1000 mg per month pellet versus ONM 50 mg per day oral, x2=14.06 (very significant)) came to 44%. In data set [2] (1000 mg naltrexone orally, after 48 hours / two days), the “level in bloodstream after leveling off, oral” value is 0 ng/mL. For the same compound, the “duration of the 100 ng/ml level, oral” value in data set [2] (1000 mg naltrexone orally) is 48 h. Besides, the “level in patient's bloodstream, oral” value in data set [2] (1000 mg naltrexone orally, for 48 hours) was 100 ng/mL. Also, the “undesirable side effects of conventional oral delivery” value in data set [2] (at approximately 100 ng/l in the blood stream) is “undesirable side effects such as an unpleasant feeling”. In the data set with male rats, the pentobarbital sleeping time entry is listed as “increasingly antagonized after naltrexone administration by injection”. Also, the “behavioral sensitivity / morphine-induced hyperactivity after chronic naltrexone” value in the data set with rats [3] is “produces behavioral supersensitivity to morphine-induced reinforcement and hyperactivity; also recorded: potentiated morphine-induced hyperactivity in rats”. In addition, in the data set on rats [4], the “analgesia on repeated painful stimulation” value is reported as “repeated painful stimulation results in analgesia in rats treated with an opiate antagonist”. For the same compound, in the data set with patients (human, in vivo), the addiction liability entry is given as “neither addicting nor habit-forming”; the “euphoric effects / effects on stopping the drug” value is “provides no euphoric effects and there are no observable pharmacological consequences when a patient stops taking the drug”. The side-effects entry with patients (use in humans) is “free of severe side-effects”.
On to `C=CCN1CC[C@]23c4c5ccc(O)c4O[C@H]2C(=O)CC[C@@]3(O)[C@H]1C5` [naloxone, N-allylnoroxymorphone], for which the “analgesia on repeated painful stimulation” value in the data set with rats [4] is “repeated painful stimulation results in analgesia in rats treated with an opiate antagonist”.
